The source of these data is paper PMC12152872, “Molecular glue binding behavior of phosphoantigens to alpaca butyrophilins” (The Journal of Biological Chemistry, 2025).

Format in all cases: binding
The target in assay [1] is T1, VpBTN2 B30.2 and VpBTN3 B30.2 ΔC domains (Vicugna pacos, UniProt A0A345DF50+A0A6J0B3M7).
T1 construct: gene Btn3; mixture of VpBTN2 B30.2 (residues 311-535) and VpBTN3 B30.2 ΔC (residues 323-513), mixed 2:1; E. coli BL21(DE3), His tags removed by TEV; VpBTN2 site R475, T508, V509
T1 sequence (A0A345DF50 323-513, stated change not applied): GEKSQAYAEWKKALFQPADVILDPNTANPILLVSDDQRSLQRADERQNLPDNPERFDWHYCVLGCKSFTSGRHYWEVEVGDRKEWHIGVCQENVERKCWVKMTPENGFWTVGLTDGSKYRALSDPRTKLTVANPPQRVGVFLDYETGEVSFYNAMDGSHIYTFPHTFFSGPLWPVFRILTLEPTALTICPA
T1 sequence (A0A6J0B3M7 311-535, stated change not applied): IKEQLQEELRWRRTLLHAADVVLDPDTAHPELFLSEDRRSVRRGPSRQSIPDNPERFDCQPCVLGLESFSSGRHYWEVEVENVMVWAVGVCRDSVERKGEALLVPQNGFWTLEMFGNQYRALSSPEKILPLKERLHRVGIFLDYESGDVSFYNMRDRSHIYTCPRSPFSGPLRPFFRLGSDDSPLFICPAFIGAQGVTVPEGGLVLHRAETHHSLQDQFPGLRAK
Put plainly: ITC, VpBTN2 B30.[…] titrated into preformed VpBTN3 B30.[…] ΔC-DMASPP complex (second titration). Particulars: 25 °C, 25 mM Hepes pH 7.5, 150 mM NaCl; molecular glue; protein-protein KD in presence of DMASPP. In general terms: In ITC the heat of successive injections is recorded.

In assay [2] the target is T1, VpBTN2 B30.2 and VpBTN3 B30.2 ΔC domains. Put plainly: ITC, DMASPP titrated into mixture of VpBTN2 and VpBTN3 B30.[…] ΔC (first titration).
In assay [3] the target is T2, VpBTN2 B30.2 and full-length VpBTN3 B30.2 domain (Vicugna pacos, UniProt A0A345DF50+A0A6J0B3M7).
T2 construct: gene Btn3; E. coli
T2 sequence (A0A345DF50 323-557 limits assumed): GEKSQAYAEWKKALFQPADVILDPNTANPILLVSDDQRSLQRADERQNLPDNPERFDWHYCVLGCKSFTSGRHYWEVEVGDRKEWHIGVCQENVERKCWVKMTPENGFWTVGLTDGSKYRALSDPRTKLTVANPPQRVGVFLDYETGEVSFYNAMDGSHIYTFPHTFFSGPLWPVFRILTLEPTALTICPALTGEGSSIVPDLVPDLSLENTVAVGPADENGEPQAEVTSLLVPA
T2 sequence (A0A6J0B3M7 311-535): as the sequence (A0A6J0B3M7 311-535, stated change not applied) above
In words: ITC, VpBTN2 B30.[…] titrated into preformed full-length VpBTN3 B30.2-DMASPP complex (second titration). Particulars: 25 °C, 25 mM Hepes pH 7.5, 150 mM NaCl; molecular glue; protein-protein KD in presence of DMASPP.

Assay [4] deals with T3, BTN3A1 and BTN2A1 B30.2 domains (Homo sapiens, UniProt O00481+Q7KYR7).
T3 construct: BTN2A1 B30.2 in pET28a, Ni-NTA and DEAE; BTN3A1 B30.2 prepared as VpBTN3 B30.2; printed PDB ids are of BTN3A1 B30.2 only
T3 sequence (O00481 328-513): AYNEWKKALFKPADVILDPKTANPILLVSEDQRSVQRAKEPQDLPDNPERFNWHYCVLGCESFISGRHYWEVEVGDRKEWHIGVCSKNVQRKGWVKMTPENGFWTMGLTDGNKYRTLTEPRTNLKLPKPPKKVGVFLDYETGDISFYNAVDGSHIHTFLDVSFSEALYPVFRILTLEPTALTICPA
T3 sequence (Q7KYR7 310-506 limits assumed): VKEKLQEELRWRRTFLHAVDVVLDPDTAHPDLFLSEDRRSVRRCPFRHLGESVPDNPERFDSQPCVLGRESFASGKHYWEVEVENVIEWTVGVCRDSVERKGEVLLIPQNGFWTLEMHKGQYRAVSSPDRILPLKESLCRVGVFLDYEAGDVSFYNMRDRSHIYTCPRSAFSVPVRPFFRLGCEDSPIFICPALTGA
In words: ITC, second titration (BTN2A1 B30.[…] into BTN3A1 B30.2-DMASPP complex). The note with it: 25 °C, 25 mM Hepes pH 7.5, 150 mM NaCl; molecular glue; protein-protein KD in presence of DMASPP.

Assay [5] concerns the target T3, BTN3A1 and BTN2A1 B30.2 domains. Put plainly: ITC, DMASPP titrated into mixture of BTN2A1 and BTN3A1 B30.[…] (first titration).
Another assay deals with T4, VpBTN3 B30.2 ΔC (Vicugna pacos, UniProt A0A345DF50).
T4 construct: gene Btn3; intracellular B30.2 domain, residues 323-513, C-terminal loop truncated; pET32a, E. coli BL21(DE3); N-terminal His tag removed by TEV; pocket H381, H408, W421, K423, R442, R448, R499
T4 sequence (A0A345DF50 323-513, stated change not applied): as the sequence (A0A345DF50 323-513, stated change not applied) above
In words: ITC; crystal structure.

In general, KD refers to the concentration at which binding is half-saturated. As a reminder, the Kd is the constant that tells how readily two partners part at equilibrium. On to `CC(C)=CCSP(=O)(O)OP(=O)(O)O` [DMASPP], for which the values for the KD in assay [1], in assay [3] and in assay [4] were 22.8 µM, 15.2 µM and 18.8 µM, respectively. Besides, the equilibrium dissociation constant (Kd) is 4.34 µM in assay [2], 8.19 µM in assay [5] and 44.7 µM on VpBTN3 B30.2 ΔC.
